Measured values reported in patent publication USRE38963E1, “Pyrazoline derivatives, their preparation and application as medicaments” (Laboratorios del Dr. Esteve, priority 1998, dated 2006).
Like-named read-outs stand apart in the source and are kept apart here.

Assays:
gastric ulcers in rats = assay: Gastrointestinal effects: induction of ulcers in rats submitted to cold stress; format: in vivo; details: rat, po; for Maximum non-Ulcerogenic dose: linear regression of dose-response
Experimental: Gastrointestinal Effects (GI): Induction of Ulcers in Rats Submitted to Cold Stress
In this assay possible ulcerogenic effects at a gastrointestinal level were determined after oral administration. […] Firstly the rats received the products under study orally at different doses. After two hours had elapsed the rats were placed in a chest freezer at −15° C. for 1 hour. Afterwards they were left for 1 hour at room temperature The animals were then sacrificed and the stomach extracted. The stomach was kept in saline solution for 15 minutes After this time the percentage of surface area with gastric ulcers was determined using a Project C.S.V. vs 1.2 image analyser for each stomach.

[1] = test system: carrageenan pre-inflamed rat paw; assay: Analgesic activity against hyperalgesia by thermal stimulus of pre-inflamed rat paw; format: in vivo; details: for % Activity, analgesic activity against hyperalgesia by thermal stimulus: dose 40 mg/kg po, 2 h after treatment; for ED50: po, read-out: ED-50 of analgesic activity against hyperalgesia by thermal stimulus
Experimental: Analgesic Activity Against “Hyperalgesia” by Thermal Stimulus of Pre-inflamed Rat Paw
In this assay the analgesic activity in rat was monitored following the method described by K. Hargreaves et al. (Pain, 1988, 32, 77-78). Firstly, a suspension of carrageenan was injected into the back right paw of each rat. After two hours the products under study were administered orally at a screening dose of 40 mg/kg. Two hours after treatment a heat source was applied to the sole of each back paw of the rats and the time measured that they took to remove the paw measured. Hyperalgesia was determined by comparing the percentage of algesia of the paw injected with carrageenan to the other back paw. The analgesic activity was calculated comparing these hyperalgesia values of the groups treated with product with those of the group treated with the vehicle only.

[2] = test system: COX-1 (PGE2 in gastric mucus); assay: Inhibition of the synthesis of prostaglandins (PGE2) in gastric mucus in rat; format: in vivo; details: for inhibition at 40 mg/kg: read-out: Inhibition of PGE2, Gastric mucus; for ED50: read-out: ED-50, Inhibition of PGE2, Gastric mucus
Experimental: (§1) Inhibition of the Synthesis of Prostaglandins in Inflammatory Exudate and Mucus Membrane in Rat
(§2) The products under study are administered orally at an initial screening dose of 40 mg/kg One hour after treatment the rats were anaesthetised and a sponge soaked in carrageenan was implanted subcutaneously in the interscapular zone. Six hours after implantation the rats were sacrificed and the interscapular sponges extracted as well as gastric mucuous. Next the PGE2 content was determined by immunoassay for each one of the samples, in the sponge exudate on the one hand and in the gastric mucus on the other.

[3] = test system: COX-2/COX-1 (PGE2 in inflammatory exudate); assay: Inhibition of the synthesis of prostaglandins (PGE2) in inflammatory exudate in rat, carrageenan sponge; format: in vivo; details: for inhibition at 40 mg/kg: read-out: Inhibition of PGE2, Inflammatory exudate; for ED50: read-out: ED-50, Inhibition of PGE2, Inflammatory exudate
Experimental: as §1, §2

[4] = test system: secondary inflammation of paw (experimental arthritis); assay: Anti-arthritic activity in rat (Freund adjuvant); format: in vivo; details: 10 mg/kg/day po for 11 days
Experimental: Anti-arthritic Activity in Rat
In this study the anti-arthritic activity in rat of the compound of example 3 has been studied. To do so the method described by B. J. Jaffee et al. (Agents and Actions, 1989, 27, 344-346) was followed. Firstly, the Freund adjuvant was injected (Mycobacterium butiricum suspended in soy-bean oil) through the sub-sole of the back left paw of the rats. After 14 days, when the secondary inflammation had developed in the uninjected paw, which is considered the experimental arthritis, treatment with the product under study or with the vehicle for the control group was started. The compound of example 3 was administered orally at a dose of 10 mg/kg/day for 11 days. The volume of the paw with secondary inflammation in the last days of treatment was measured. The anti-arthritic activity was calculated by comparing the average volume of the paw with secondary inflammation of the group treated with the compound of example 3 and the control group for 5 days.

Q: Which results are given for `O=C(O)Cc1ccccc1Nc1c(Cl)cccc1Cl` [Dichlophenac]?
A: Ulcerogenic effects (in words) (gastric ulcers in rats; cold stress): exhibited ulcerogenic effects at very low doses; Maximum non-Ulcerogenic dose (gastric ulcers in rats; cold stress): 1.2 mg/kg

Q: With `Cc1ccc(C2CC(C(F)(F)F)=NN2c2ccc(S(N)(=O)=O)cc2)cc1` (centres unmarked) [Example 1, 1-(4-Aminosulphonylphenyl)-4,5-dihydro-5-(4-metylphenyl)-3-trifluoromethyl-1H-pyrazole] as the molecule, how does the melting point read?
A: 140 to 143 °C

Q: With `CC1(c2ccccc2)CC(C(F)(F)F)=NN1c1ccc(S(N)(=O)=O)cc1` (centres unmarked) [Example 2, 1-(4-Aminosulphonylphenyl)-4,5-dihydro-5-phenyl-5-methyl-3-trifluoromethyl-1H-pyrazole] as the molecule, how does the melting point read?
A: 60 to 66 °C

Q: For `NS(=O)(=O)c1ccc(N2N=C(C(F)(F)F)CC2c2ccc(F)cc2F)cc1` (centres unmarked) [Example 3, 1-(4-aminosulphonylphenyl)-5-(2,4-difluorophenyl)-4,5-dihydro-3-trifluoro methyl-1H-pyrazole], which “% Activity, analgesic activity against hyperalgesia by thermal stimulus” value (shortened to “% Activity, analgesic activity”) [1] is on record?
A: 100%

Q: What about the ED50 [1] of the same molecule?
A: 0.2 mg/kg

Q: And the inhibition at 40 mg/kg ([2]; rat, dose 40 mg/kg po)?
A: 0%

Q: What about the ED50 ([2]; rat, po) of the same molecule?
A: > 40 mg/kg

Q: What about the inhibition at 40 mg/kg ([3]; rat, dose 40 mg/kg po) of the same molecule?
A: 92%

Q: What about the ED50 ([3]; rat, po) of the same molecule?
A: 36 mg/kg

Q: What about the “Inhibition of secondary inflammation (anti-arthritic activity)” value [4] of the same molecule?
A: 71%

Q: And the “Ulcerogenic effects (in words)” value (gastric ulcers in rats; in vivo)?
A: not to have ulcerogenic effects, even at very high doses

Q: And the “Maximum non-Ulcerogenic dose” value (gastric ulcers in rats; cold stress)?
A: >80 mg/kg

Q: Which melting point does the source give for `COC(=O)C1=NN(c2ccc(S(C)(=O)=O)cc2)C(c2ccc(C)cc2)C1` (centres unmarked) [Example 5, methyl 4,5-dihydro-5-(4-methylphenyl)-1-(4-methylsulphonylphenyl)-1H-pyrazole-3-carboxylate] here?
A: 156 to 157 °C

Q: Which melting point does the source give for `Cc1ccc(C2CC(C(N)=O)=NN2c2ccc(S(N)(=O)=O)cc2)cc1` (centres unmarked) [Example 6, 1-(4-aminosulphonylphenyl)-4,5-dihydro-5-(4-methylphenyl)-1H-pyrazole-3-carboxamide] here?
A: 137 to 140 °C

Q: Which melting point does the source give for `Cc1ccc(C2CC(C#N)=NN2c2ccc(S(C)(=O)=O)cc2)cc1` (centres unmarked) [Example 7, 3-cyano-4,5-dihydro-5-(4-methylphenyl)-1-(4-methylsulphonylphenyl)-1H-pyrazole] here?
A: 115 to 119 °C

Q: For `CC(=O)NS(=O)(=O)c1ccc(N2N=C(C(F)(F)F)CC2c2ccc(F)cc2F)cc1` (centres unmarked) [Example 8, 1-(4-acetylaminosulphonylphenyl)-5-(2,4-difluorophenyl)-4,5-dihydro-3-trifluoromethyl-1H-pyrazole], which melting point is on record?
A: 154 to 156 °C

Q: With `Cc1ccc(C2CC(C(=O)O)=NN2c2ccc(S(N)(=O)=O)cc2)cc1` (centres unmarked) [Example 34, 1-(4-aminosulphonylphenyl)-4,5-dihydro-5-(4-methylphenyl)-1H-pyrazole-3-carboxylic acid] as the molecule, how does the melting point read?
A: 172 to 176 °C

Q: For `COC(=O)C1=NN(c2ccc(S(C)(=O)=O)cc2)C(c2ccc(C)cc2)C1` (centres unmarked) [Example 39, methyl 4,5-dihydro-5-(4-methylphenyl)-1-(4-methylsulphonylphenyl)-1H-pyrazole-3-carboxylate], which melting point is on record?
A: 155 to 160 °C

Q: For `Cc1ccc(C2CC(C(N)=O)=NN2c2ccc(S(N)(=O)=O)cc2)cc1` (centres unmarked) [Example 41, 1-(4-aminosulphonylphenyl)-4,5-dihydro-5-(4-methylphenyl)-1H-pyrazole-3-carboxamide], which melting point is on record?
A: 210 to 215 °C

Q: For `Cc1ccc(C2CC(C(N)=O)=NN2c2ccc(S(C)(=O)=O)cc2)cc1` (centres unmarked) [Example 42, 4,5-dihydro-5-(4-methylphenyl)-1-(4-methylsulphonylphenyl)-1H-pyrazole-3-carboxamide], which melting point is on record?
A: 128 to 132 °C

Q: With `Cc1ccc(C2CC(C#N)=NN2c2ccc(S(C)(=O)=O)cc2)cc1` (centres unmarked) [Example 43, 3-cyano-4,5-dihydro-5-(4-methylphenyl)-1-(4-methylsulphonylphenyl)-1H-pyrazole] as the molecule, how does the melting point read?
A: 162 to 164 °C

Q: With `CC(=O)NS(=O)(=O)c1ccc(N2N=C(C(F)(F)F)CC2c2ccc(F)cc2F)cc1` (centres unmarked) [Example 64, 1-(4-acetylaminosulphonylphenyl)-5-(2,4-difluorophenyl)-4,5-dihydro-3-trifluoromethyl-1H-pyrazole] as the molecule, how does the melting point read?
A: 172 to 174 °C

Q: With `Cc1cnc(NC(=O)C2=C(O)c3ccccc3S(=O)(=O)N2C)s1` [Meloxicam] as the molecule, how does the inhibition at 40 mg/kg ([2]; Rattus norvegicus, po) read?
A: 65%

Q: And the inhibition at 40 mg/kg ([3]; Rattus norvegicus, po)?
A: 97%

Q: For `COc1ccc2cc(CCC(C)=O)ccc2c1` [Nabumetone], which “% Activity, analgesic activity” value [1] is on record?
A: 95%

Q: What about the ED50 [1] of the same molecule?
A: 2.1 mg/kg

Q: And the inhibition at 40 mg/kg ([2]; rat, dose 40 mg/kg po)?
A: 0%

Q: And the ED50 ([2]; rat, po)?
A: > 40 mg/kg

Q: What about the inhibition at 40 mg/kg ([3]; rat, dose 40 mg/kg po) of the same molecule?
A: 93%

Q: What about the ED50 ([3]; rat, po) of the same molecule?
A: 110 mg/kg

Q: Which “% Activity, analgesic activity” value [1] does the source give for `CS(=O)(=O)Nc1ccc([N+](=O)[O-])cc1Oc1ccccc1` [Nimesulide] here?
A: 97%

Q: And the ED50 [1]?
A: 1 mg/kg

Q: Which results are given for `CN1C(C(=O)Nc2ccccn2)=C(O)c2ccccc2S1(=O)=O` [Piroxicam]?
A: Ulcerogenic effects (in words) (gastric ulcers in rats; in vivo): exhibited ulcerogenic effects at very low doses; Maximum non-Ulcerogenic dose (gastric ulcers in rats; cold stress): 1.7 mg/kg
